In data set [1] the test system is 3D EpiIntestinal™ tissue. As to the kind of experiment: Reconstructed intestine micronucleus cytome (RICyt) assay. From the text:
EpiIntestinal™ tissue (SMI-200-FT v2.0) was purchased from MatTek Corporation® (Ashland, MA). The EpiIntestinal™ construct is a differentiated 3D tissue model that consists of intestinal villi and crypts topology resembling the normal human small intestine. […] The mature tissues are shipped sealed in 24-well agar-plugged plates to the designated laboratory (in this instance, Singapore). Upon receipt, the tissues are revived overnight in fresh SMI-100-MM before use in assays.
(§1) Test compound stock solutions were prepared in DMSO (D161802, Sigma Aldrich, St Louis, MO). For the 3D tissues, dilutions were made in complete culture media yielding ≤ 0.1% DMSO final concentration. Media containing 0.1% DMSO (i.e. without test article) were applied to tissues to serve as the vehicle control. All 3D tissues were treated apically every alternate day (from day 0–6) and daily (from day 7–9), while basolateral wells contain untreated culture media to support the tissue growth. TK6 cells were exposed for 24 h with the test materials prior to harvest.
(§2) 3D tissues were dissociated using human tumour dissociation kit (Miltenyl Biotec, Bergisch Gladbach, Germany), as per manufacturers’ instruction, with minor modifications. Individual 3D tissues cultured on microporous membranes were excised from the culture inserts and incubated for 15 min in cell recovery solution (Corning, Tewksbury, MA). The tissues were subsequently peeled off from the membrane with fine point forceps under stereo microscope (Leica Microsystems, Wetzlar, Germany). The peeled tissues were placed into gentleMACS C-tube (Miltenyi Biotech, Bergisch Gladbach, Germany) containing the enzyme mix described in the kit’s protocol. The tubes were then transferred into a gentleMACS octo dissociator with heater (Miltenyi Biotech, Bergisch Gladbach, Germany), and subjected to one cycle of ‘37C_m_LPDK_1’ program. Upon completion, the cell suspension was centrifuged at 1000 rpm for 5 min; the supernatant was removed and the pellet was resuspended in 2 mL of Hanks Balanced Salts Solution (HBSS). […] The proliferation of the 3D tissue was estimated through calculation of population doubling based on the dissociated cell number at the day 1, 6 and 11 after tissue revival. The cells were then (1) fixed for micronuclei scoring or (2) processed for subsequent experimentation.
Tissues were exposed to test substances, harvested and dissociated into single cell suspension as described above. Cell suspension samples were divided equally; half of the cell suspension sample was fixed in Carnoy’s solution with 3 fixation steps in methanol/acetic acid […], supplemented with formaldehyde at 1st fixation. The cell suspension was aged at least overnight at 4 °C to improve the quality of fixed cells. The remaining cells were incubated with 4% formaldehyde for 15 min, rinsed twice with 1 × PBS and stored in 4 °C. […] One thousand total cells were scored per microtissue to determine the frequency of MN and cytome. The percentage of MN and cytome at each concentration of test chemical was compared with the solvent control. The results were generated from three independent experiments. Each experiment consisted of a single microtissue per dose.

Data set [2] concerns 3D EpiIntestinal™ tissue. The settings on record: human, 10 days. The procedure:
as §1
as §2, with “revival.” for “revival. The cells were then (1) fixed for micronuclei scoring or (2) processed for subsequent experimentation.”

The subject of data set [3] is TK6 cells. The settings on record: 24 h, comparable across all concentrations tested; DMSO control 0.7%.
In data set [4] the test system is 3D EpiIntestinal™ tissue. As to the kind of experiment: Cytokinesis-blocked micronucleus analysis (CBMN) in EpiIntestinal™ tissue. In kind it is cell-based, human. The settings on record: 6 μg/ml, apical and basolateral, 10 days. The procedure:
The CBMN assay was conducted according to a previously published procedure (Fenech and Morley [1985b]). Briefly, cytochalasin B (5474, Tocris Bioscience, Bristol, UK, 6 μg/ml) was applied to the 3D EpiIntestinal™ in vitro tissues every other day, to the apical and to the basolateral compartments. […] The cell suspension was stored in fixative at 4 °C overnight, stained with acridine orange (1:100 dilution in 1 × PBS, A1301, Invitrogen; Thermo Fisher Scientific, Waltham, MA) and scored under fluorescence microscopy (Zeiss Axioimager, equipped with triple band excitation fluorescence filter set: DAPI, FITC and Texas red). Scoring was performed following the criteria developed by Fenech et al. (Fenech et al. [2003], [2007]). One thousand total cells per microtissue were scored to determine the percentage of cells with one (mononucleated) or two nuclei (binucleated). The results were generated from three independent experiments. Each experiment consisted of a single microtissue per dose.

Data set [5] has as its system TK6 cells. The settings on record: 24 h-exposure, dose not printed (Fig. 6b).
[6] abbreviates: 50 ng/ml, apical, 10 days, Carnoy's fixative, mean ± SE.
The mark [7] stands for this setting: 250 ng/ml, apical, 10 days, Carnoy's fixative, mean ± SE.
The mark [8] stands for this setting: 500 ng/ml, apical, 10 days, Carnoy's fixative, mean ± SE.

Structures are written as SMILES. “And” between values parts separate entries of the source, which are not always exact repeats. Identical values can stand only once. Counter-ions that a name gives are not always drawn. Like-named read-outs stand apart in the source and are kept apart here.

`CC[C@]1(O)C[C@@H]2CN(CCc3c([nH]c4ccccc34)[C@@](C(=O)OC)(c3cc4c(cc3OC)N(C)[C@H]3[C@@](O)(C(=O)OC)[C@H](OC(C)=O)[C@]5(CC)C=CCN6CC[C@]43[C@@H]65)C2)C1` [vinblastine sulphate]: in the data set with 3D EpiIntestinal™ tissue [1] (setting [6]), the “BN, binucleated cells” value was 0.77 ± 0.12%; the “Buds, nuclear buds” value is reported as 0.63 ± 0.29%; the “CC, condensed chromatin” value came out at 0.07 ± 0.03%; the “KL, karyolysis” value is 1.23 ± 0.74%. In the data set with 3D EpiIntestinal™ tissue [1] (setting [6]), the “KR, karyorrhexis” value came to 4.90 ± 0.63%; the “MN, micronuclei” value worked out at 2.71 ± 0.44%; the “Mono, mononucleated cells (basal and differentiated)” value (“Mono … (basal and differentiated)” below) came to 89.09 ± 1.25%; the “PY, pyknosis” value was 0.6 ± 0.12%. Moreover, in the data set with 3D EpiIntestinal™ tissue [1] (setting [7]), the “BN, binucleated cells” value was 0.86 ± 0.38%; the “Buds, nuclear buds” value was 0.53 ± 0.28%; the “CC, condensed chromatin” value was found to be 0.15 ± 0.13%; the “KL, karyolysis” value turned out to be 1.82 ± 1.01%. Further, in the data set with 3D EpiIntestinal™ tissue [1] (setting [7]), the “KR, karyorrhexis” value is given as 4.75 ± 1.30%; the “MN, micronuclei” value came to 3.11 ± 0.36 %; the “Mono … (basal and differentiated)” value is on record as 87.14 ± 2.07%; the “PY, pyknosis” value is listed as 1.66 ± 0.49%. Besides, in the data set with 3D EpiIntestinal™ tissue [1] (setting [8]), the “BN, binucleated cells” value is 0.94 ± 0.49%; the “Buds, nuclear buds” value stood at 0.50 ± 0.16%; the “CC, condensed chromatin” value came out at 0.17 ± 0.02 %; the “KL, karyolysis” value was found to be 1.79 ± 1.05%. In addition, in the data set with 3D EpiIntestinal™ tissue [1] (setting [8]), the “KR, karyorrhexis” value is recorded as 6.48 ± 2.52%; the “MN, micronuclei” value worked out at 3.46 ± 0.16 %; the “Mono … (basal and differentiated)” value is 84.89 ± 3.06%; the “PY, pyknosis” value is 1.77 ± 0.77%. Also, the “frequency of pyknotic and karyolytic cells” value with 3D EpiIntestinal™ tissue [1] (apical, 10 days) is reported as “increased”. For the same molecule, in the data set with 3D EpiIntestinal™ tissue [2], the “doses with significant decreases in cell population” value worked out at 500 ng/mL.
Take `[H]/N=C(/N)N/C(=N/[H])NCCc1ccccc1` [phenformin HCl, Phenformin HCl]: the “prevalence of MN in TK6 cells” value in the data set with TK6 cells [3] was ~ 0.6%. For the same molecule, the RICyt assay outcome in the data set on 3D EpiIntestinal™ tissue [1] is “inactive”. For the same molecule, in the data set on 3D EpiIntestinal™ tissue [1] (10 days' exposure, DMSO control […]), the “prevalence of MN” value is given as ~ 1%. In addition, the “loss of viable cell populations” value worked out at 40% with 3D EpiIntestinal™ tissue [2] (62.5 µg/ml), 45% in the data set on 3D EpiIntestinal™ tissue [2] (125 µg/ml) and 60% in the data set on 3D EpiIntestinal™ tissue [2] (250 µg/ml).
Take `c1ccc2c(c1)cc1ccc3cccc4ccc2c1c34` [benzo(a)pyrene]: in the data set on 3D EpiIntestinal™ tissue [1] (human, 10 days, 6.25 μg/ml), the “BN, binucleated cells” value was 1.30 ± 0.12%; the “CC, condensed chromatin” value came out at 0.13 ± 0.03%; the “KL, karyolysis” value came to 0.60 ± 0.25%; the “KR, karyorrhexis” value was determined as 5.59 ± 0.41 %. In the data set with 3D EpiIntestinal™ tissue [1] (human, 10 days, 6.25 μg/ml), the “Mono … (basal and differentiated)” value worked out at 89.96 ± 0.56%; the “PY, pyknosis” value amounted to 0.23 ± 0.03%. In the data set with 3D EpiIntestinal™ tissue [1] (human, 10 days, 12.5 μg/ml), the “BN, binucleated cells” value turned out to be 1.80 ± 0.38%; the “CC, condensed chromatin” value is 0.37 ± 0.22%; the “KL, karyolysis” value is given as 0.63 ± 0.23%; the “KR, karyorrhexis” value was found to be 7.27 ± 1.07%. For the same molecule, in the data set with 3D EpiIntestinal™ tissue [1] (human, 10 days, 12.5 μg/ml), the “Mono … (basal and differentiated)” value came to 85.87 ± 1.30%; the “PY, pyknosis” value worked out at 0.40 ± 0.21%. For the same molecule, in the data set on 3D EpiIntestinal™ tissue [1] (human, 10 days, 25 μg/ml), the “BN, binucleated cells” value turned out to be 0.99 ± 0.29%; the “CC, condensed chromatin” value amounted to 0.20 ± 0.10%; the “KL, karyolysis” value amounted to 0.40 ± 0.20%; the “KR, karyorrhexis” value amounted to 6.24 ± 0.06 %. In the data set with 3D EpiIntestinal™ tissue [1] (human, 10 days, 25 μg/ml), the “Mono … (basal and differentiated)” value is reported as 88.11 ± 1.01%; the “PY, pyknosis” value was found to be 0.56 ± 0.33%. The “doses with significant decreases in cell population” value with 3D EpiIntestinal™ tissue [2] is at least 6250 ng/mL.
In the case of `C=C1[C@@H](C)[C@H]2[C@H](Cc3ccccc3)NC(=O)[C@]23OC(=O)/C=C/[C@H](O)CCC[C@@H](C)C/C=C/[C@H]3[C@@H]1O` [Cyt-B, cytochalasin B], in the data set with 3D EpiIntestinal™ tissue [4], the “cells containing BN (binucleated)” value was 8.1% and ~ 8.1%; the mononuclear cells came to 91.9%.
Molecule `CO[C@@]12[C@H](COC(N)=O)C3=C(C(=O)C(C)=C(N)C3=O)N1C[C@@H]1N[C@@H]12` [mitomycin C] displayed a population decline in the data set on TK6 cells [5] of 55%.

Values taken from article PMC9013689, “Development of reconstructed intestinal micronucleus cytome (RICyt) assay in 3D human gut model for genotoxicity assessment of orally ingested substances” (Archives of Toxicology, 2022).
